The record followed here is ChEMBL document CHEMBL1133239, “Acid catalyzed Michael additions to artemisitene” (2000).

The test system of test [1] is Plasmodium falciparum. Briefly: Relative antimalarial activity compared to artemisinin against Plasmodium falciparum D6. In kind it is functional.
Test [2] concerns Plasmodium falciparum. As to the kind of experiment: Relative antimalarial activity compared to artemisinin against Plasmodium falciparum W-2. In kind it is functional.

On to `C[C@@H]1CC[C@H]2[C@@H](CC#N)C(=O)O[C@@H]3O[C@@]4(C)CC[C@@H]1[C@]32OO4`, for which the Relative activity in the test on Plasmodium falciparum [1] is on record as 0.17; in the test on Plasmodium falciparum [2] it was 0.036.
The like results for `C[C@@H]1CC[C@H]2[C@@H](CC3C=CC(=O)O3)C(=O)O[C@@H]3OC4(C)CC[C@@H]1[C@]32OO4` (single isomer, unassigned) were, in that order, 0.058 and 0.03.
For `C[C@@H]1CC[C@H]2[C@@H](CC/C(=C/C(=O)c3ccccc3)c3ccccc3)C(=O)O[C@@H]3OC4(C)CC[C@@H]1[C@]32OO4` (single isomer, unassigned) the same measures were 6.2 and 0.55.
The like results for `C[C@@H]1CC[C@H]2[C@H](CC3C=CC(=O)O3)C(=O)O[C@@H]3OC4(C)CC[C@@H]1[C@]32OO4` (single isomer, unassigned) were, in that order, 0.33 and 0.037.
With `C[C@@H]1CC[C@H]2[C@@H](CC3CCCC3=O)C(=O)O[C@@H]3OC4(C)CC[C@@H]1[C@]32OO4` (single isomer, unassigned), the figures for the Relative activity with Plasmodium falciparum [1] and in the test with Plasmodium falciparum [2] were 0.47 and 0.29, respectively.
The like results for `C[C@@H]1CC[C@H]2[C@@H](CCC(=O)C(C)(C)C)C(=O)O[C@@H]3OC4(C)CC[C@@H]1[C@]32OO4` (single isomer, unassigned) were, in that order, 7.4 and 1.13.
The like results for `C[C@@H]1CC[C@H]2[C@H](CCC(=O)C(C)(C)C)C(=O)O[C@@H]3OC4(C)CC[C@@H]1[C@]32OO4` (single isomer, unassigned) were, in that order, 4.5 and 0.74.
The like results for `C[C@@H]1CC[C@H]2[C@H](CC#N)C(=O)O[C@@H]3OC4(C)CC[C@@H]1[C@]32OO4` (single isomer, unassigned) were, in that order, 0.17 and 0.036.
Regarding `C=CCC[C@H]1C(=O)O[C@@H]2OC3(C)CC[C@H]4[C@H](C)CC[C@@H]1[C@@]24OO3` (single isomer, unassigned), the Relative activity was determined as 2.3 with Plasmodium falciparum [1] and 2.9 in the test with Plasmodium falciparum [2].
